One assay concerns the target wild type RET (Homo sapiens (Human), UniProt P07949). The assay can be described thus: RET Wild Type Assay at KM (Caliper electrophoretic mobility shift). The format is biochemical. The note with it: 25 μM ATP (KM).
In another assay the target is RET V804L (Homo sapiens (Human), UniProt P07949, V804L). Briefly: RET V804L Gatekeeper Mutant Assay at KM (Caliper electrophoretic mobility shift). In kind it is biochemical. The settings on record: 10 μM ATP (KM), read-out: V480L Mutant.
RET V804L, sequence (P07949 29-1114 V804L): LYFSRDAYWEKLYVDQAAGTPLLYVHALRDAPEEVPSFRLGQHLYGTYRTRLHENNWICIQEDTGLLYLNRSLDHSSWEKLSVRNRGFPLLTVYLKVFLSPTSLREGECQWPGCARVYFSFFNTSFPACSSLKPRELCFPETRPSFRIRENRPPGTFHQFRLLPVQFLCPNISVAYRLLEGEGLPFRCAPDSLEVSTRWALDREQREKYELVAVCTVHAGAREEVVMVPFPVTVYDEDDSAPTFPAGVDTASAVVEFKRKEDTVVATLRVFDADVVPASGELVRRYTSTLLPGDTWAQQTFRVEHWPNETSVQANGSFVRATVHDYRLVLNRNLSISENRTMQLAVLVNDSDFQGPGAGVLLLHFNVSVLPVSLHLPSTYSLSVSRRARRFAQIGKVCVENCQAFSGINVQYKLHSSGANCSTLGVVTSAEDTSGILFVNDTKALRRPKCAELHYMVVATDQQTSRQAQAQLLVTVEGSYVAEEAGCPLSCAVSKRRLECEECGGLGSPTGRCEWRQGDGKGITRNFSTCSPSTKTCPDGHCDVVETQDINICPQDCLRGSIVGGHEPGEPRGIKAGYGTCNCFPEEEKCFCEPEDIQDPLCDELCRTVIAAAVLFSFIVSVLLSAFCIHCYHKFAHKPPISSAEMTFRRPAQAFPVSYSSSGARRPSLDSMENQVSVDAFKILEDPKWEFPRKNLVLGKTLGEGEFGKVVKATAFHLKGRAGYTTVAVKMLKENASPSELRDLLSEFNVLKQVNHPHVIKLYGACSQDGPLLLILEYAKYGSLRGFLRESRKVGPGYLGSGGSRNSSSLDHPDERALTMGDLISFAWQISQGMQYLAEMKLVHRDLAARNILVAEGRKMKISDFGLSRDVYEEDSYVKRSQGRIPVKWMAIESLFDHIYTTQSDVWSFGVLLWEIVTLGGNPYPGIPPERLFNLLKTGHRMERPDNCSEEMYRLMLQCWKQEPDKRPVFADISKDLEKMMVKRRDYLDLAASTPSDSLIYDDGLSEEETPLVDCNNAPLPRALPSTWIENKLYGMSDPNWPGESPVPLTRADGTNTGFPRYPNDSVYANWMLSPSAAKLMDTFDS

This note sets out measurements from patent US10227329B2, “Compounds useful for treating disorders related to RET” (BLUEPRINT MEDICINES CORPORATION, priority 2016, dated 2019).

pIC50: −log10 of the molar value.

wild type RET, sequence (P07949 29-1114): as the sequence (P07949 29-1114 V804L) above, with L776V counted along it

As for `Cc1cc(Nc2cc(C)[nH]n2)nc(N2CCC(CO)(C(=O)N[C@@H](C)c3ccc(-n4cc(F)cn4)nc3)CC2)c1` [Compound 217], the pIC50 at wild type RET and at RET V804L was > 8.00 in each case.
For `Cc1cc(Nc2cc(C)[nH]n2)nc(N2CCC(CO)(C(=O)N[C@@H](C)c3ccc(-n4cc(F)cn4)nc3)CC2)n1` [Compound 219], the pIC50 at wild type RET and at RET V804L was > 8.00 each time.
Turning to `COC1(C(=O)N[C@@H](C)c2ccc(-n3cc(F)cn3)nc2)CCN(c2cc(C)nc(Nc3cc(C)[nH]n3)n2)CC1` [Compound 220], the pIC50 on wild type RET and at RET V804L was > 8.00 each time.
For the molecule `COC1(C(=O)N[C@@H](C)c2cnc(-n3cc(F)cn3)cn2)CCN(c2nc(C)cc(Nc3cc(C)[nH]n3)n2)CC1` [Compound 221], the pIC50 on wild type RET and at RET V804L was > 8.00 throughout.
As for `COC1(C(=O)N[C@@H](C)c2ccc(-n3cccn3)nc2)CCN(c2nc(Nc3cc(C)[nH]n3)cc(C)c2C#N)CC1` [Compound 222], the pIC50 on wild type RET and on RET V804L was > 8.00 in each case.
Consider `COC1(C(=O)N[C@@H](C)c2ccc(-n3cc(F)cn3)nc2)CN(c2cc(C(F)F)cc(Nc3cc(C)[nH]n3)n2)C1` [Compound 223], for which the pIC50 on wild type RET and at RET V804L was > 8.00 each time.
For the molecule `Cc1cc(N2CCC(CC#N)(C(=O)N[C@@H](C)c3ccc(-n4cc(F)cn4)nc3)CC2)nc(Nc2cc(C)[nH]n2)n1` [Compound 224], the pIC50 on wild type RET and on RET V804L was > 8.00 in each case.
Take `Cc1cc(Nc2cc(C3CC3)[nH]n2)nc(N2CCC(C)(C(=O)N[C@@H](C)c3ccc(-n4cc(F)cn4)nc3)CC2)c1` [Compound 225]: the pIC50 at wild type RET and at RET V804L was > 8.00 in each case.
For the molecule `COC1(C(=O)NCc2ccc(-n3cc(F)cn3)nc2)CCN(c2nc(Nc3cc(C)[nH]n3)cc(C)c2C#N)CC1` [Compound 226], the pIC50 on wild type RET and at RET V804L was > 8.00 each time.
As to `COC1(C(=O)N[C@@H](C)c2ccc(-n3cc(F)cn3)nc2)CCN(c2nc(Nc3cc(C)[nH]n3)cc(C)c2C#N)CC1` [Compound 227], the pIC50 at wild type RET and on RET V804L was > 8.00 each time.
Take `Cc1cc(Nc2cc(C)[nH]n2)nc(N2CCC(OCC(F)(F)F)(C(=O)NCc3ccc(-n4cccn4)nc3)CC2)n1` [Compound 228]: the pIC50 at wild type RET and at RET V804L was > 8.00 each time.
